Among the test systems are OVCAR-8 ovarian; RPMI-8226 leukemia; NCI-H226 lung; SR leukemia; MALME-3M melanoma; UACC-257 melanoma; SK-MEL-28 melanoma; MCF7 breast; HOP-62 NSCLC; SK-OV-3 ovarian.
What all share (assay): DTP human tumour cell line panel, 48 h

As usually defined, the TGI is the concentration giving total growth inhibition. Read a high TGI as lower sensitivity of the cells.

Each structure is given as a SMILES string.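 Cultured in 96-well plates, cells were exposed to test compound for 48 hours across five concentrations. At the TGI there is no net growth.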

In the case of `O=S(=O)(/N=C(\NO)Nc1ccc(Cl)cc1)c1cc(S(=O)(=O)c2ccccc2)cs1`, the TGI with OVCAR-8 ovarian is 36.7 µM; in the experiment with RPMI-8226 leukemia, 44.8 µM; in the experiment on NCI-H226 lung it was 51.6 µM; with SR leukemia, 95.7 µM; in the experiment on MALME-3M melanoma, 28.5 µM; in the experiment on UACC-257 melanoma, 39 µM. Further, the figures for the concentration for total growth inhibition (TGI) with SK-MEL-28 melanoma, in the experiment on MCF7 breast and in the experiment with HOP-62 NSCLC were 41.2 µM, 35.9 µM and 33.5 µM, respectively.

Turning to `CC1=CC(=O)c2c(O)c3c(c(O)c2C1=O)C1C(O)C(C3=O)C23C(=O)c4c(O)c(C)cc(O)c4C(O)=C2C(=O)CC(O)C13` (stereo not given), the TGI in the experiment on OVCAR-8 ovarian came to 8.65 µM; with NCI-H226 lung it was 6.56 µM; in the experiment with SR leukemia it was 6.52 µM; in the experiment with MALME-3M melanoma it was 2.91 µM; in the experiment on SK-OV-3 ovarian it was 6.86 µM; in the experiment on UACC-257 melanoma, 3.5 µM. Also, the figures for the TGI in the experiment with SK-MEL-28 melanoma, in the experiment on MCF7 breast and in the experiment with HOP-62 NSCLC were 6.78 µM, 14.6 µM and 6.21 µM, respectively.

Turning to `O=C(/C=C/c1ccc(Cl)cc1)c1ccc(Cl)s1`, the TGI in the experiment on OVCAR-8 ovarian was greater than 100 µM; in the experiment with RPMI-8226 leukemia it was 80.1 µM; in the experiment with SR leukemia, greater than 100 µM; in the experiment with MALME-3M melanoma, greater than 100 µM; with SK-OV-3 ovarian it was greater than 100 µM; in the experiment on UACC-257 melanoma, greater than 100 µM. Further, the figures for the total growth inhibition concentration (TGI) in the experiment on SK-MEL-28 melanoma, with MCF7 breast and in the experiment on HOP-62 NSCLC were greater than 100 µM, 44.6 µM and greater than 100 µM, respectively.

Turning to `O=C1NC2=NN=C(c3ccc(Br)cc3)CN2NC12c1ccccc1-c1ccccc12`, the TGI in the experiment with OVCAR-8 ovarian, in the experiment with NCI-H226 lung, in the experiment on SR leukemia, in the experiment with MALME-3M melanoma, in the experiment on SK-OV-3 ovarian and with UACC-257 melanoma was greater than 100 µM in each case. The TGI in the experiment with SK-MEL-28 melanoma, in the experiment on MCF7 breast and in the experiment with HOP-62 NSCLC was greater than 100 µM throughout.

For the compound `CC(=O)Nc1sccc1S(=O)(=O)c1ccc(Cl)cc1`, the concentration for total growth inhibition (TGI) with OVCAR-8 ovarian, with RPMI-8226 leukemia, with NCI-H226 lung, with SR leukemia, with MALME-3M melanoma and in the experiment on SK-OV-3 ovarian was greater than 100 µM in each case. For the same compound, the TGI in the experiment with UACC-257 melanoma, with SK-MEL-28 melanoma and in the experiment on MCF7 breast was greater than 100 µM throughout.

Consider `N#C[C@H](C(=O)c1ccccc1F)c1nc2ccccc2[nH]1`, for which the concentration for total growth inhibition (TGI) in the experiment with OVCAR-8 ovarian, in the experiment with RPMI-8226 leukemia, in the experiment with NCI-H226 lung, in the experiment with SR leukemia, in the experiment with SK-OV-3 ovarian and in the experiment with UACC-257 melanoma was greater than 100 µM each time. For the same compound, the TGI in the experiment on SK-MEL-28 melanoma, in the experiment with MCF7 breast and with HOP-62 NSCLC was greater than 100 µM in each case.

In the case of `Cn1c(SCc2c[nH]c3ccccc23)nnc1-c1ccc(Cl)cc1Cl`, the total growth inhibition concentration (TGI) was greater than 100 µM with OVCAR-8 ovarian; 27.1 µM in the experiment with RPMI-8226 leukemia; 16.6 µM in the experiment on SR leukemia; 45.8 µM in the experiment on MALME-3M melanoma; 59.4 µM in the experiment on SK-OV-3 ovarian; 56.1 µM with UACC-257 melanoma. Moreover, the figures for the concentration for total growth inhibition (TGI) in the experiment on SK-MEL-28 melanoma, with MCF7 breast and with HOP-62 NSCLC were greater than 100 µM, 84.9 µM and 21.4 µM, respectively.

As for `CC(C)(CC1(C)NC(=O)NC1=O)OCc1ccccc1` (stereo not given), the TGI in the experiment on OVCAR-8 ovarian, with RPMI-8226 leukemia, in the experiment with SR leukemia, in the experiment with MALME-3M melanoma, in the experiment on SK-OV-3 ovarian and in the experiment on UACC-257 melanoma was greater than 100 µM throughout. Moreover, the TGI in the experiment with SK-MEL-28 melanoma, in the experiment with MCF7 breast and in the experiment on HOP-62 NSCLC was greater than 100 µM throughout.

For `Clc1cccc2[nH]ncc12`, the concentration for total growth inhibition (TGI) in the experiment on OVCAR-8 ovarian, in the experiment with RPMI-8226 leukemia, in the experiment on NCI-H226 lung, in the experiment with SR leukemia, in the experiment on SK-OV-3 ovarian and with UACC-257 melanoma was greater than 100 µM in each case. Also, the TGI in the experiment on SK-MEL-28 melanoma, in the experiment on MCF7 breast and with HOP-62 NSCLC was greater than 100 µM in each case.

For `COC(=O)[C@]1(C)CCCC2(C)C3=C(CCC21)CC1(CC3)SCCS1` (stereo not given in full), the total growth inhibition concentration (TGI) with OVCAR-8 ovarian, with RPMI-8226 leukemia, in the experiment on SR leukemia, in the experiment with MALME-3M melanoma, in the experiment on SK-OV-3 ovarian and in the experiment on UACC-257 melanoma was greater than 10 µM throughout. For the same compound, the TGI in the experiment on SK-MEL-28 melanoma, with MCF7 breast and with HOP-62 NSCLC was greater than 10 µM each time.

With `CC(=O)Oc1ccc(/C=C/C(=O)NCCOC(=O)/C=C/c2ccc(OC(C)=O)c(OC(C)=O)c2)cc1OC(C)=O`, the total growth inhibition concentration (TGI) was greater than 100 µM in the experiment on OVCAR-8 ovarian; 90.5 µM in the experiment with RPMI-8226 leukemia; greater than 100 µM in the experiment with SR leukemia; greater than 100 µM with MALME-3M melanoma; greater than 100 µM in the experiment with SK-OV-3 ovarian; greater than 100 µM with UACC-257 melanoma. In addition, the TGI in the experiment with SK-MEL-28 melanoma, in the experiment with MCF7 breast and in the experiment on HOP-62 NSCLC was greater than 100 µM throughout.

With `CCOC(=O)C1=C(C)N(CC(C)C)C2(O)C(OC)CC(=O)C3C(=O)N(c4ccccc4)C(=O)C132` (stereo not given), the TGI in the experiment with OVCAR-8 ovarian is 59.6 µM; with RPMI-8226 leukemia, greater than 100 µM; in the experiment with NCI-H226 lung, 57.7 µM; in the experiment on SR leukemia, 49.9 µM; in the experiment on MALME-3M melanoma it was 96.7 µM; with UACC-257 melanoma, greater than 100 µM. The total growth inhibition concentration (TGI) with SK-MEL-28 melanoma is 70.1 µM; in the experiment on MCF7 breast, greater than 100 µM; in the experiment on HOP-62 NSCLC, greater than 100 µM.

In the case of `Cc1cc(OC(=O)Nc2ccc(Cl)cc2)ccc1C(=S)Nc1ccccc1`, the concentration for total growth inhibition (TGI) in the experiment on OVCAR-8 ovarian, in the experiment on RPMI-8226 leukemia, with SR leukemia, with MALME-3M melanoma, with SK-OV-3 ovarian and in the experiment on UACC-257 melanoma was greater than 100 µM in each case. Further, the TGI with SK-MEL-28 melanoma, in the experiment on MCF7 breast and in the experiment on HOP-62 NSCLC was greater than 100 µM in each case.

`C/C(=N\Nc1nc2ccccc2n1C)c1ccc2ccccc2n1`: the TGI with OVCAR-8 ovarian was greater than 100 µM; in the experiment on NCI-H226 lung, 6.83 µM; in the experiment with SR leukemia, 3.73 µM; with MALME-3M melanoma, 16.3 µM; in the experiment on SK-OV-3 ovarian it was greater than 100 µM; with UACC-257 melanoma, greater than 47 µM. Further, the concentration for total growth inhibition (TGI) in the experiment on SK-MEL-28 melanoma was found to be 37.3 µM; with MCF7 breast it was 27.4 µM; in the experiment on HOP-62 NSCLC, 18.2 µM.

Consider `O=C([O-])C1([n+]2c(-c3ccccc3)cc(-c3ccccc3)cc2-c2ccccc2)CC1`, for which the total growth inhibition concentration (TGI) with OVCAR-8 ovarian, in the experiment with RPMI-8226 leukemia, in the experiment with NCI-H226 lung, in the experiment on SR leukemia, in the experiment with MALME-3M melanoma and in the experiment with UACC-257 melanoma was greater than 100 µM throughout. Besides, the TGI in the experiment with SK-MEL-28 melanoma, in the experiment on MCF7 breast and with HOP-62 NSCLC was greater than 100 µM each time.
